The record followed here is patent US20210395210A1, “INHIBITION OF BACTERIAL CHAPERONIN SYSTEMS” (THE TRUSTEES OF INDIANA UNIVERSITY, priority 2018, published 2021).

Like-named read-outs stand apart in the source and are kept apart here. Bounds are passed on as bounds.

The target of one test is T1, native MDH (Sus scrofa, UniProt P00346).
T1 construct: soluble pig heart MDH from Roche, product #10127248001; purchased Roche 10127248001; host or cells: pig heart
T1 sequence (P00346 25-338): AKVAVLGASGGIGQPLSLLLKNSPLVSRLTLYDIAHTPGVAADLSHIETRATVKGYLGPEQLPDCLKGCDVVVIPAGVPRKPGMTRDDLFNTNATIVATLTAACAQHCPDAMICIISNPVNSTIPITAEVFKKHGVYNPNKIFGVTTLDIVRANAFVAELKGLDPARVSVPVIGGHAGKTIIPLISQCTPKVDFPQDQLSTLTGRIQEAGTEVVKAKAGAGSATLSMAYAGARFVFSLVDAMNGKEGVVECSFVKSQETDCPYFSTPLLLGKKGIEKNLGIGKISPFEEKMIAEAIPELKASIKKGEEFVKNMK
In words: Counter-screen for inhibition of native MDH enzymatic activity. The format is biochemical, pig. In short, it runs like this: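 Fully refolded MDH, produced by a 45 min, 37 °C GroEL/ES reaction and stopped with EDTA, was then dosed with compound (62.5 μM–29 nM, 8 points, 3-fold). Activity was read as A340 NADH decrease until ~90% consumed; reported IC50s are means of at least quadruplicate runs.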

In test [1] the test system is Enterococcus faecium (ATCC 19434). Put plainly: Bacterial proliferation assay, E. faecium. It counts as cell-based. An outline of the steps: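 This stagnant growth-inhibition assay used E. faecium (ATCC 19434) in cation-adjusted Brain Heart Infusion medium. Diluted cultures (OD600 0.017) were added to clear flat-bottom 384-well plates containing 0.5 μL compound in 20 μL media. After 24 h without shaking at 37° C., absorbance at 600 nm was measured, corrected with bacteria-free plates, and EC50 values were averaged from quadruplicates.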

The subject of test [2] is Drug sensitive Staphylococcus aureus (ATCC 25923). Put plainly: Bacterial proliferation assay, drug sensitive S. aureus. The format is cell-based. An outline of the steps:
(§1)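 Cation-adjusted BHI (25 mg/L Ca2+, 12.5 mg/L Mg2+); inoculum OD600 0.017; static 37 °C. Read OD600 at 6-8 h for S. aureus, E. cloacae, P. aeruginosa; 24 h for A. baumannii.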

Test [3] concerns Methicillin resistant S. aureus (MRSA) (ATCC BAA-44). Put plainly: Bacterial proliferation assay, MRSA. It counts as cell-based, Staphylococcus aureus. To be noted: Staphylococcus aureus. In short, it runs like this:
as §1

In test [4] the test system is Klebsiella Pneumonia (ATCC 13883). Put plainly: Bacterial proliferation assay, K. pneumoniae. The format is cell-based. An outline of the steps:
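Growth inhibition of K. pneumoniae (ATCC 13883) was measured in cation-adjusted BHI broth. An overnight culture was sub-cultured 1:5 for 1-2 hours, then diluted to OD600 of 0.017 and dispensed into compound-stamped 384-well plates. Plates were sealed with oxygen-permeable membranes and incubated without shaking at 37° C. for 6-8 h. Absorbance at 600 nm was corrected against bacteria-free control plates, and EC50 was averaged from quadruplicate replicates.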

Test [5] relates to Pseudomonas aeruginosa (ATCC 10145). In words: Bacterial proliferation assay, P. aeruginosa. It counts as cell-based. In short, it runs like this:
as §1

For test [6], the system named is Enterobacter cloacae (ATCC 13047). Put plainly: Bacterial proliferation assay, E. cloacae. It counts as cell-based. In short, it runs like this: as §1
The mark [7] stands for this setting: log of IC50 (μM scale), with standard deviation, read-out: log(IC50) Native MDH Reporter (converted).
Where [8] appears, read: read-out: Biochemical Assay IC50 Native MDH Reporter.
The mark [9] stands for this setting: ATCC19434, OD600 at 24 h, read-out: Bacterial Proliferation EC50 E. faecium.
The mark [10] stands for this setting: ATCC19434, log of EC50 (μM scale), with standard deviation, read-out: log(EC50) Bacterial Proliferation Assay C. faecium (converted).
Where [11] appears, read: ATCC25923, OD600 at 6-8 h, read-out: Bacterial Proliferation EC50 S. aureus Sensitive.
[12] abbreviates: ATCC25923, log of EC50 (μM scale), with standard deviation, read-out: log(EC50) Bacterial Proliferation Assay S. aureus Sensitive (converted).
Setting [13] is: MRSA, log of EC50 (μM scale), with standard deviation, read-out: log(EC50) Bacterial Proliferation Assay S. aureus Resistant (converted).
Where [14] appears, read: ATCC13883, OD600 at 6-8 h, read-out: Bacterial Proliferation EC50 K. pneumoniae.
The mark [15] stands for this setting: ATCC13883, log of EC50 (μM scale), with standard deviation, read-out: log(EC50) Bacterial Proliferation Assay K. pneumoniae (converted).
Setting [16] is: ATCC10145, OD600 at 6-8 h, read-out: Bacterial Proliferation EC50 P. aeruginosa.
Setting [17] is: ATCC10145, log of EC50 (μM scale), with standard deviation, read-out: log(EC50) Bacterial Proliferation Assay P. aeruginosa (converted).
Setting [18] is: ATCC13047, OD600 at 6-8 h, read-out: Bacterial Proliferation EC50 E. cloacae.
Where [19] appears, read: ATCC13047, log of EC50 (μM scale), with standard deviation, read-out: log(EC50) Bacterial Proliferation Assay E. cloacae (converted).
The mark [20] stands for this setting: MRSA, OD600 at 6-8 h, read-out: Bacterial Proliferation EC50 S. aureus Resistant.

As for `O=C(Nc1cccc(Cl)c1)c1cc(Br)cc(Br)c1O` [Compound 9, 3,5-Dibromo-N-(3-chlorophenyl)-2-hydroxybenzamide], the IC50 (as a rule, the concentration that gives 50% inhibition) on native MDH (setting [7]) was 25.1 µM; at native MDH (setting [8]), 27 µM. Moreover, the EC50 in test [1] (ATCC19434, 24 h, read-out: Bacterial Proliferation EC50 E. faecium) is 73 µM; in test [1] (ATCC19434, read-out: log(EC50) Bacterial Proliferation Assay C. faecium (converted)), 72.4 µM; in test [2] (ATCC25923, read-out: Bacterial Proliferation EC50 S. aureus Sensitive), 0.66 µM; in test [2] (ATCC25923, read-out: log(EC50) Bacterial Proliferation Assay S. aureus Sensitive (converted)) it was 0.661 µM; in test [3] (read-out: Bacterial Proliferation EC50 S. aureus Resistant) it was 1.1 µM; in test [3] (read-out: log(EC50) Bacterial Proliferation Assay S. aureus Resistant (converted)) it was 1.1 µM. Also, the EC50 in test [4] (ATCC13883, read-out: Bacterial Proliferation EC50 K. pneumoniae) is 95 µM; in test [4] (ATCC13883, read-out: log(EC50) Bacterial Proliferation Assay K. pneumoniae (converted)), 95.5 µM; in test [5] (ATCC10145, read-out: Bacterial Proliferation EC50 P. aeruginosa), > 100 µM; in test [5] (ATCC10145, read-out: log(EC50) Bacterial Proliferation Assay P. aeruginosa (converted)), > 100 µM; in test [6] (ATCC13047, read-out: Bacterial Proliferation EC50 E. cloacae) it was 78 µM; in test [6] (ATCC13047, read-out: log(EC50) Bacterial Proliferation Assay E. cloacae (converted)) it was 77.6 µM.
In the case of `O=C(Nc1ccccc1)c1cccc(Br)c1` [Compound 27, 3-Bromo-N-phenylbenzamide], the concentration for half-maximal inhibition (IC50) was > 63.1 µM on native MDH (setting [7]) and > 63 µM at native MDH (setting [8]). The EC50 in test [1] (setting [9]), in test [1] (setting [10]), in test [2] (setting [11]), in test [2] (setting [12]), in test [3] (setting [13]) and in test [4] (setting [14]) was > 100 µM in each case. Also, the EC50 in test [4] (setting [15]), in test [5] (setting [16]), in test [5] (setting [17]), in test [6] (setting [18]) and in test [6] (setting [19]) was > 100 µM in each case.
For `COc1c(Br)cc(Br)cc1C(=O)Nc1cccc(Cl)c1` [Compound 37, 3,5-Dibromo-N-(3-chlorophenyl)-2-methoxybenzamide], the IC50 is > 63.1 µM at native MDH (setting [7]) and > 63 µM at native MDH (setting [8]). In addition, the EC50 in test [1] (setting [9]) is > 100 µM; in test [1] (setting [10]), > 100 µM; in test [2] (setting [11]), 46 µM; in test [2] (setting [12]), 45.7 µM; in test [3] (setting [20]), > 100 µM; in test [3] (setting [13]), > 100 µM. Further, the EC50 in test [4] (setting [14]), in test [4] (setting [15]), in test [5] (setting [16]), in test [5] (setting [17]), in test [6] (setting [18]) and in test [6] (setting [19]) was > 100 µM in each case.
For `O=C(Nc1ccc(Sc2nc3ccccc3s2)cc1)c1ccccc1` [Compound 22, N-(4-(Benzo[d]thiazol-2-ylthio)phenyl)benzamide], the IC50 is > 63.1 µM at native MDH (setting [7]) and > 63 µM at native MDH (setting [8]). Further, the EC50 in test [1] (setting [9]), in test [1] (setting [10]), in test [2] (setting [11]), in test [2] (setting [12]), in test [3] (setting [13]) and in test [4] (setting [14]) was > 100 µM each time. The EC50 in test [4] (setting [15]), in test [5] (setting [16]), in test [5] (setting [17]), in test [6] (setting [18]) and in test [6] (setting [19]) was > 100 µM each time.
With `O=C(Nc1ccccc1)c1cc(Br)cc(Br)c1` [Compound 26, 3,5-Dibromo-N-phenylbenzamide], the concentration for half-maximal inhibition (IC50) on native MDH (setting [7]) was > 63.1 µM; on native MDH (setting [8]) it was > 63 µM. The EC50 in test [1] (setting [9]), in test [1] (setting [10]), in test [2] (setting [11]), in test [2] (setting [12]), in test [3] (setting [13]) and in test [4] (setting [14]) was > 100 µM in each case. Further, the EC50 in test [4] (setting [15]), in test [5] (setting [16]), in test [5] (setting [17]), in test [6] (setting [18]) and in test [6] (setting [19]) was > 100 µM each time.
In the case of `COc1c(Br)cccc1C(=O)Nc1ccc(Sc2nc3ccccc3s2)cc1` [Compound 34, N-(4-(Benzo[d]thiazol-2-ylthio)phenyl)-3-bromo-2-methoxybenzamide], the figures for the half-inhibitory concentration (IC50) on native MDH (setting [7]) and on native MDH (setting [8]) were > 63.1 µM and > 63 µM, respectively. Also, the EC50 in test [1] (setting [9]), in test [1] (setting [10]), in test [2] (setting [11]), in test [2] (setting [12]), in test [3] (setting [13]) and in test [4] (setting [14]) was > 100 µM in each case. Moreover, the EC50 in test [4] (setting [15]), in test [5] (setting [16]), in test [5] (setting [17]), in test [6] (setting [18]) and in test [6] (setting [19]) was > 100 µM throughout.
In the case of `O=C(Nc1ccc(Sc2nc3ccccc3s2)cc1)c1cccc(Br)c1` [Compound 21, N-(4-(Benzo[d]thiazol-2-ylthio)phenyl)-3-bromobenzamide], the 50% inhibitory concentration (IC50) on native MDH (setting [7]) was > 63.1 µM; at native MDH (setting [8]) it was > 63 µM. In addition, the EC50 in test [1] (setting [9]), in test [1] (setting [10]), in test [2] (setting [11]), in test [2] (setting [12]), in test [3] (setting [13]) and in test [4] (setting [14]) was > 100 µM each time. In addition, the EC50 in test [4] (setting [15]), in test [5] (setting [16]), in test [5] (setting [17]), in test [6] (setting [18]) and in test [6] (setting [19]) was > 100 µM in each case.
Consider `COc1ccc(Br)cc1C(=O)Nc1ccccc1` [Compound 43, 5-Bromo-2-methoxy-N-phenylbenzamide], for which the IC50 is > 63.1 µM at native MDH (setting [7]) and > 63 µM at native MDH (setting [8]). Also, the EC50 in test [1] (setting [9]), in test [1] (setting [10]), in test [2] (setting [11]), in test [2] (setting [12]), in test [3] (setting [13]) and in test [4] (setting [14]) was > 100 µM throughout. The EC50 in test [4] (setting [15]), in test [5] (setting [16]), in test [5] (setting [17]), in test [6] (setting [18]) and in test [6] (setting [19]) was > 100 µM in each case.
Regarding `CC1(C)S[C@@H]2[C@H](NC(=O)[C@H](N)c3ccccc3)C(=O)N2[C@H]1C(=O)O` [Ampicillin, ampicillin, reference compound], the IC50 at native MDH (setting [7]) was > 63.1 µM; at native MDH (setting [8]), > 63 µM. Besides, the EC50 in test [1] (setting [9]) is 6.9 µM; in test [1] (setting [10]) it was 6.92 µM; in test [2] (setting [11]), 0.19 µM; in test [2] (setting [12]), 0.195 µM; in test [3] (setting [20]), > 100 µM; in test [3] (setting [13]), > 100 µM. Moreover, the EC50 in test [4] (setting [14]), in test [4] (setting [15]), in test [5] (setting [16]), in test [5] (setting [17]), in test [6] (setting [18]) and in test [6] (setting [19]) was > 100 µM in each case.
